Patent US8178688B2, “Benzamidine derivatives, process for the preparation thereof and pharmaceutical composition comprising the same” (Dong Wha Pharmaceutical Co., Ltd., priority 2004, dated 2012)
Marks after values point to notes of the source that are not given here.

What was measured:
ovariectomized ddY mouse = assay: Therapeutic effect in the ovariectomized osteoporetic mouse model (trabecular bone volume of the femur); format: in vivo, ddY mice; details: 50 mg/kg/day oral gavage for 4 weeks from 4 weeks after ovariectomy, salts (methansulfonic acid or HCl); for change in vivo at 50 mg/kg: Mus musculus, 672 h, read-out: Changes on TBV (% changes vs vehicle control)
Outline: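 Female ddY mice, bilaterally ovariectomized; benzamidine salts (methanesulfonate or HCl) given orally at 50 mg/kg/day for 4 weeks, starting 4 weeks post-surgery. Femoral trabecular bone volume (%) measured histomorphometrically on H&E sections of trochlea epiphyseal region; reported as percentage change versus vehicle control.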

[1] = system: rat models subjected to rib fracture; assay: Effect of promoting fracture healing in rib fracture-induced rat model (callus volume, callus osteoid volume); format: in vivo, SD rats; details: for Changes on callus volume (mm^3): 200 mg/kg oral once a day for 2 weeks from day 2 of surgery, 8th and 9th ribs, vehicle control 37.22 ± 8.23; for Changes on callus osteoid volume (OV/callus, %): 200 mg/kg oral once a day for 2 weeks, 8th rib, vehicle control 35.88 ± 5.06
Experimental: The benzamidine compounds were assayed for therapeutic effect on bone fracture in rat models subjected to rib fracture. Benzamidine derivates are dosed from 2 days after operation for 2 weeks, and the changes on the volume and histology of callus were observed.
A total of 54 SD rats (8 weeks old upon receipt, Jung Ang Lab. Animal Co., Korea) were used. While being housed at a density of three to a plastic cage, the experimental animals were kept in a breeding room under controlled temperature (20-25° C.) and humidity (30-35%). Under light-dark cycles of 12 hours, the rats were allowed to have free access to feedstuff and tap water.
200 mg of benzamidine compounds (Methansulfonic acid or Hydrochloride) were completely dissolved in 5 ml of sterilized distilled water. The benzamidine derivatives in the solutions was orally administered at doses of 200 mg per kg of body weight once a day for 2 weeks from day 2 of the surgery.
8th and 9th rib of each animal was exposed by general operation under ketamine HCl and xylazine HCl anesthesia, and the exposed ribs were crossly dissected using surgical scissors. After rib-fracture, surgical wounds were closed with general skin suture.
8th and 9th ribs of each animal were separated at sacrifice and then the long axis and short axis of callus were calculated as mm units. The volume of callus was calculated as following Equation 2. Callus volume(mm^3)=(a×b^2)/2 Equation 2 • a: long diameter of bony callus • b: short diameter of bony callus
The 8th rib including fracture sites of each rat was separated and fixed in 10% neutral buffered formalin, and then decalcified in decalcifying solution (24.4% formic acid, and 0.5N sodium hydroxide) for 5 days (mixed decalcifying solution was exchanges once a day for 5 days). After decalcification, the rib was embedded in paraffin, sectioned (3˜4 μm) and stained with hematoxylin-eosin or Masson's trichrome for composition of callus observation.
Osteloid volume (OV/callus) in callus regions of prepared histological specimens were detected as % levels using automated image analysis (analySIS Image Processing; SIS, Germany) under microscopy.

[2] = system: mouse models of ovalbumin-induced asthma; assay: Therapeutic effect in mouse model of asthma induced with ovalbumin (lung weight, total leukocytes in blood and BALF); format: in vivo, C57BL/6 mice; details: for Changes on the lung weight, Relative (%) / Total leukocytes in peripheral blood (×10^3/1 mm^3) / Total leukocytes in BALF (×10^5/1 ml): 200 mg/kg oral once a day; for Changes on the lung weight, Relative (%): % of body weight, vehicle control 0.780 ± 0.103, sham 0.694 ± 0.049; for Total leukocytes in peripheral blood (×10^3/1 mm^3): vehicle control 14.49 ± 0.88, sham 10.27 ± 0.93; for Total leukocytes in BALF (×10^5/1 ml): vehicle control 75.68 ± 4.67, sham 51.75 ± 2.15
Experimental: The benzamidine compounds were assated for therapeutic effect on allergic inflammation in mouse models of ovalbumin-induced asthma. Starting on the day of immunization the benzamidine compounds were dosed for 17 consecutive days. The experimental animals were re-exposed to ovalbumin 14 days after the sensitization and then sacrificed 3 days after the re-exposure. Changes in lung weight, cellular components of peripheral blood and bronchoalveolar lavage fluid, and lung histopathology were observed.
A total of 110 female C57BL/6 mice (7-week-old, SLC, Japan) were adapted to a laboratory environment for 6 days before being used in earnest experiments. While being housed at a densirt of five in a plastic cage, the experimental animals were breed in a breeding room with controlled temperature (20-25° C.) and humidity (30-35%). Under light-dark cycles of 12 hours, mice were allowed to have free access to feedstuff and tap water. While asthma was induced in 100 mice by ovalbumin, 10 mice were used as a non-treated group.
200 mg of benzamidine compounds (Methansulfonic acid or Hydrochloride) were completely dissolved in 5 ml of sterilized distilled water. The benzamidine compound in the solutions was orally administered at doses of 200 mg per kg of body weight once a day from the day of the sensitization with ovalbumin. The control group was administered with equal volumes of sterilized distilled water in the same manner.
A solution of 200 μg of ovalbumin (Grade VI; Sigma, st. Louis, Mo., USA) and 180 mg of aluminium hydroxide (Al(OH)3, dried powder gel; Aldrich, Milwaukee, USA) in 4 ml of physiological saline was allowed to stand at 4° C. overnight and was administered to the experimental animals (200 μl, abdominal injection) for sensitization. As for the non-treated group, a solution of only aluminium hydroxide in saline was injected. 15 days after sensitization, a 1.5% ovalbumin solution was sprayed in air using a nebulizer, followed by exposing the experimental animals to the spray for 10 min to induce asthma therein. The non-treated group was exposed only to saline in the same manner. All the experimental animals were sacrificed 3 days after the exposure.
On the final day of experiment, the lungs were separated form adjacent organs. The removed lungs were weight among individual animals, the relative weight of the lungs was calculated as a percentage of body weight using the following Equation 3. Relative weight of Lung(%)=(Absolute lung weight/Body weight)×100 Equation 3
On the final day of experiment, all the experimental animals were etherized and underwent laparotomy to expose the abdominal vena cava, from which 1 ml of blood was the taken. Using a hemocytometer, a blood sample was measured for total leukocyte counts in a ×10^3/1 mm^3 units.
On the final day of experiment, secretions present in bronchi and alveola were examined for cyrological constitution. After veing etherized, the experimental animals were operated to open the cervical region and the thorax. The jugular vein was allowed to bleed, followed by endotracheal intubation. 3 ml of phosphate buffered saline was injected twice through the tube and the thorax was massaged for 30 sec to obtain cell suspension from the lungs. Using a hemocytometer, a […] was measured for total leukocyte counts in a ×10^5/1 ml units.

[3] = 200 mg/kg oral once a day from sensitization, vehicle control 0.134 ± 0.012, sham 0.110 ± 0.009

SMILES | change in vivo at 50 mg/kg (ovariectomized ddY mouse) | Changes on callus volume (mm^3) [1] | Changes on callus osteoid volume (OV/callus, %) [1] | Changes on the lung weight, Absolute [2, 3] | Changes on the lung weight, Relative (%) [2] | Total leukocytes in peripheral blood (×10^3/1 mm^3) [2] | Total leukocytes in BALF (×10^5/1 ml) [2] | Changes on TBV (% changes vs vehicle control) (ovariectomized ddY mouse) | Changes on the lung weight, Absolute (g) [2, 3]
Cc1sc(-c2cccnc2)nc1-c1ccc(OCCCCCOc2ccc(C(=N)NO)cc2)cc1 [Example 13, N-hydroxy-4-(5-[4-(5-methyl-2-pyridin-3-yl-1,3-thiazol-4-yl)phenoxy]pentoxy)-benzamidine] | 82% | 23.15 ± 7.85* mm^3 | 43.19 ± 4.47 % | 0.108 ± 0.009 g | 0.695 ± 0.075% | 14.06 ± 1.07 ×10^3/1 mm^3 | 72.75 ± 4.88 ×10^5/1 ml |  | 
CC(C)c1nc(-c2ccc(OCCCCCOc3ccc(C(=N)NO)cc3)cc2)c(CC2CCCC2)s1 [Example 47, N-hydroxy-4-(5-[4-(5-cyclopentylnnethyl-2-isopropyl-1,3-thiazol-4-yl)phenoxy]pentoxy)-benzamidine] |  | 27.56 ± 6.94** mm^3 | 45.69 ± 7.07% |  | 0.706 ± 0.059% | 12.55 ± 1.35 # ×10^3/1 mm^3 | 62.40 ± 7.56 # ×10^5/1 ml | 139.8% | 0.122 ± 0.010 ## g
CCCN(CCC)c1nc(-c2ccc(OCCCCCOc3ccc(C(=N)NO)cc3)cc2)c(CC)s1 [Example 138, N-hydroxy-4-(5-[4-(2-dipropylamino-5-ethyl-1,3-thiazol-4-yl)phenoxy]pentoxy)-benzamidine] | 164% | 27.34 ± 5.46* mm^3 | 53.83 ± 7.84 % | 0.113 ± 0.011 g | 0.691 ± 0.065 % | 13.60 ± 0.83 # ×10^3/1 mm^3 | 68.83 ± 5.29 ## ×10^5/1 ml |  | 
